Test results from patent publication US20120101093A1, “SUBSTITUTED IMIDAZO[1,2-A]PYRIDINE DERIVATIVES, PHARMACEUTICAL COMPOSITIONS, AND METHODS OF USE AS BETA-SECRETASE INHIBITORS” (HIGH POINT PHARMACEUTICALS, LLC, priority 2009, published 2012).

Columns and labels:
[1] = system: Aβ1-40 secreted from HEK293 cells stably expressing wildtype human APP695 protein (HEK-APPwt cells); test: Aβ Cell Based Assay (Aβ1-40 secretion, ELISA); details: Homo sapiens, HEK293, 6 h, 6 hours incubation, reduction of Aβ1-40 secretion
In short: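 Cells in DMEM with 2% FBS exposed to ten compound concentrations for 6 h at 37 °C. Secreted Aβ1-40 in supernatant quantified by sandwich ELISA (82E1 capture, TMB, OD450). EC50 from percent inhibition, DAPT defining 100% inhibition, non-linear fit.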

BACE-1 enzyme = molecular target: T1, BACE-1 enzyme (Homo sapiens, UniProt P56817); test: BACE Fluorescence Resonance Energy Transfer (FRET) Assay; type: biochemical; details: pH 4-4.5, 30 min pre-incubation, about 1.5 hours reaction
T1 construct: purchased R & D Systems 931AS
In short: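 Fluorescence (ex 540, em 585 nm) after ~1.5 h room-temperature cleavage of a quenched rhodamine peptide tracks BACE-1 activity. Enzyme and compound first sit 30 min in pH 4-4.5 acetate buffer with CHAPS, Triton X-100, EDTA, 7.5% DMSO. Values given as IC50 or % inhibition.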

T1 sequence (P56817 46-457 limits assumed): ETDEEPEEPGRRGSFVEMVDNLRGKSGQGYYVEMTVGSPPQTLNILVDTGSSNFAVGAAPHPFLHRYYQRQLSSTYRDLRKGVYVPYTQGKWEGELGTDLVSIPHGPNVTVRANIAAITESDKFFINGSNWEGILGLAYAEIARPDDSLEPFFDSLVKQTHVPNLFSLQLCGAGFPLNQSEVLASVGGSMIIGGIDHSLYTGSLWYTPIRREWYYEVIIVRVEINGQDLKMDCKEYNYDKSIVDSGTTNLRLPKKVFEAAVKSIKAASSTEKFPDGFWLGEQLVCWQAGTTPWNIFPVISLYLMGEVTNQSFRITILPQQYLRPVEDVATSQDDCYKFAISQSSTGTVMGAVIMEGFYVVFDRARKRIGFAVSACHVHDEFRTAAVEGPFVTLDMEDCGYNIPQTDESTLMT

IC50 (BACE-1 enzyme) [µM] | Structure (SMILES) | EC50 [1] [µM]
0.41 | CN1CC=C(c2cccc3nc(C(=O)Nc4nc5cc(-c6cccc(C(F)(F)F)c6)ccc5[nH]4)cn23)CC1 [Example 215, 5-(1-methyl-1,2,3,6-tetrahydropyridin-4-yl)-N-{5-[3-(trifluoromethyl)phenyl]-1H-benzimidazol-2-yl}imidazo[1,2-a]pyridine-2-carboxamide] | 5.35
0.9 | CN1CCC(c2cccc3nc(C(=O)Nc4nc5cc(-c6cccc(C(F)(F)F)c6)ccc5[nH]4)cn23)CC1 [Example 219, 5-(1-methylpiperidin-4-yl)-N-{5-[3-(trifluoromethyl)phenyl]-1H-benzimidazol-2-yl}imidazo[1,2-a]pyridine-2-carboxamide] | 7.48
0.29 | CNC(=O)c1cccc2nc(C(=O)Nc3nc4cc(-c5cc(F)cc(Cl)c5)ccc4[nH]3)cn12 [Example 226, Imidazo[1,2-a]pyridine-2,5-dicarboxylic acid 2-{[5-(3-chloro-5-fluoro-phenyl)-1H-benzoimidazol-2-yl]-amide} 5-methylamide] | 2.14
0.31 | CN(C)C(=O)c1cccc2nc(C(=O)Nc3nc4cc(-c5cc(F)cc(Cl)c5)ccc4[nH]3)cn12 [Example 227, Imidazo[1,2-a]pyridine-2,5-dicarboxylic acid 2-{[5-(3-chloro-5-fluoro-phenyl)-1H-benzoimidazol-2-yl]-amide} 5-dimethylamide] | 1.65
0.28 | COCCNC(=O)c1cccc2nc(C(=O)Nc3nc4cc(-c5cc(F)cc(Cl)c5)ccc4[nH]3)cn12 [Example 228] | 1.34
